In patent US20250129092A1, “COMPOUNDS USEFUL IN MODULATION OF AHR SIGNALLING” (JAGUAHR THERAPEUTICS PTE LTD, priority 2021, published 2025):

Assays:
[1] = target: T1, AhR (Homo sapiens, UniProt P35869); assay: AhR antagonism in human PBMCs - inhibition of IL-22 release; type: cell-based; design: endogenous in cells; conditions: human PBMCs activated with CD3/CD28 agonist mixture, 72 hrs, IL-22 ELISA; average; read-out: hPBMC Inhibition of CD3/CD28 induced IL-22 release: av. pIC50 (converted)
T1 sequence (P35869 11-848): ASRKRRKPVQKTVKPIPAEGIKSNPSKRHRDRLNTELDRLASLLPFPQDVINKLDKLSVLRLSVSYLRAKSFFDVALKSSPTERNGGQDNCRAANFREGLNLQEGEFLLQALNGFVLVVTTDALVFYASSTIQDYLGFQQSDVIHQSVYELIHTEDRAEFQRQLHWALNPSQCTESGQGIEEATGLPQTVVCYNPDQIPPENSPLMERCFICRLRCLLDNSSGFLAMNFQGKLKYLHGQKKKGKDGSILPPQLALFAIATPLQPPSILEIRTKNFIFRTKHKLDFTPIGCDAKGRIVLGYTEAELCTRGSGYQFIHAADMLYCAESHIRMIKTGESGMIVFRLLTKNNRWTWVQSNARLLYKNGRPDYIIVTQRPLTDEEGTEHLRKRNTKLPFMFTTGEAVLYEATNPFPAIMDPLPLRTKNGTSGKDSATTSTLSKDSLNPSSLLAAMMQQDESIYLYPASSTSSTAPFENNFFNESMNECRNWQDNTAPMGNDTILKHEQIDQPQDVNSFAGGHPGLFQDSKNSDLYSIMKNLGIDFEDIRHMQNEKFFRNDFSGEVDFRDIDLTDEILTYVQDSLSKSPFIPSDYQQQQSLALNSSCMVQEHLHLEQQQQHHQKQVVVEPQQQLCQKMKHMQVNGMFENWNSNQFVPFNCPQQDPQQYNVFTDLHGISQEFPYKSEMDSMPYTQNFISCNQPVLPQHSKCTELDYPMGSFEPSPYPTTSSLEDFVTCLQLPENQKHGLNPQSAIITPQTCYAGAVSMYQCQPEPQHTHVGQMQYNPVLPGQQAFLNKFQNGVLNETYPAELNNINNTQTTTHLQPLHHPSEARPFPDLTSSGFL
Text: In Vitro Assay 3: AhR Antagonism in Human Peripheral Blood Mononuclear Cells (PBMCs)-Inhibition of Interleukin-22 (IL-22) Release.
PBMCs were isolated from human peripheral blood using Lymphoprep™ and diluted to 1×10^6 cells per ml in RPMI media containing […] foetal bovine serum, 1% penicillin-streptomycin and 1% non essential amino acids. PBMCs were subsequently activated with 1p1 per 100,000 cells of a CD3/CD28 agonist mixture (human T Cell TransAct™ (Miltenyi Biotec)) and then plated at 100,000 cells per well in a round bottom 96 well tissue culture plate. One hour after stimulation seven concentrations of each test compound or vehicle (final [DMSO] 0.2%) were added. The plates were then placed in an incubator at 37° C., ≥85% humidity, 5% […] for 72 hrs before the media was removed and stored at −20° C. until cytokine analysis. IL-22 was measured using human IL-22 DuoSet ELISA (R&D systems) according to the manufacturer's instructions.

[2] = target: T1, AhR; assay: AhR antagonism in U937 cells (Promega P450-Glo assay); type: cell-based; design: endogenous in cells; host or cells: U937 cells; conditions: CYP1A1 activity readout (Luciferin-CEE), head names VAF347, average, read-out: U937 Antagonist pIC50-VAF347: av. pIC50 (converted)
Procedure: In Vitro Assay 1: AhR Antagonism in U937 Cells (Promega P450-Glo™ Assay)
AhR antagonism was assessed in LJ937 cells (myeloid lineage cell line derived from a human histiocytic lymphoma). Ligand binds the AhR in the cytoplasm, and the AhR-ligand complex translocates to the nucleus and forms a heterodimer with AhR nuclear translocator (Arnt). This complex binds the xenobiotic response element (XRE) in the 5′ upstream region of the CYP1A1 promoter, enhancing CYP1A1 expression. CYP1A1 activity is subsequently determined by assessing the conversion of Luciferin-CEE to luciferin, which in turn reacts with luciferase to produce light. The amount of light produced is directly proportional to cytochrome P450 activity. U937 cells in Ultraculture serum free media (Lonza) were plated at 100,000 cells per well in a round bottom 96 well tissue culture plate. […] The plates were then placed in an incubator at 37° C., ≥85% humidity, 5% CO2 for 24 hrs. After aspiration of the supernatant the CYP1A1 substrate Luciferin-CEE ([Final] 83 μM) was added and incubated for 3 hrs before the reaction was stopped by adding luciferin detection reagent and luminescence was read after 20 minutes.

SMILES	IC50 [1]	IC50 [2]
Fc1cncc(-c2nc3c(c(N[C@@H]4CCc5[nH]c6ccccc6c5C4)n2)OCCN3)c1 [Example 4, 2-(5-fluoro-3-pyridyl)-N-[(3R)-2,3,4,9-tetrahydro-1H-carbazol-3-yl]-7,8-dihydro-6H-pyrimido[5,4-b][1,4]oxazin-4-amine]	83.2 nM	16.2 nM
CC1COc2c(NCCc3c[nH]c4ccccc34)nc(-c3cncc(F)c3)nc2N1 (centres unmarked) [Example 5, 2-(5-fluoro-3-pyridyl)-N-[2-(1H-indol-3-yl)ethyl]-7-methyl-7,8-dihydro-6H-pyrimido[5,4-b][1,4]oxazin-4-amine]	0.955 nM	1.86 nM
CC(C)N1CCOc2c(NCCc3c[nH]c4ccccc34)nc(-c3cncc(F)c3)nc21 [Example 6, 2-(5-fluoro-3-pyridyl)-N-[2-(1H-indol-3-yl)ethyl]-8-isopropyl-6,7-dihydropyrimido[5,4-b][1,4]oxazin-4-amine]	1.35 nM	7.76 nM
C[C@H]1COc2c(NCCc3c[nH]c4ccccc34)nc(-c3cncc(F)c3)nc2N1 [Example 8, (7S)-2-(5-fluoro-3-pyridyl)-N-[2-(1H-indol-3-yl)ethyl]-7-methyl-7,8-dihydro-6H-pyrimido[5,4-b][1,4]oxazin-4-amine]	1.05 nM	1.12 nM
C[C@@H]1COc2c(NCCc3c[nH]c4ccccc34)nc(-c3cncc(F)c3)nc2N1 [Example 9, (7R)-2-(5-fluoro-3-pyridyl)-N-[2-(1H-indol-3-yl)ethyl]-7-methyl-7,8-dihydro-6H-pyrimido[5,4-b][1,4]oxazin-4-amine]	0.661 nM	0.513 nM
Cc1ncc(-c2nc3c(c(N(CCO)CCc4c[nH]c5ccccc45)n2)OCCN3)s1 [Example 11, 2-[2-(1H-indol-3-yl)ethyl-[2-(2-methylthiazol-5-yl)-7,8-dihydro-6H-pyrimido[5,4-b][1,4]oxazin-4-yl]amino]ethanol]	525 nM	91.2 nM
c1ccc2c3c([nH]c2c1)CC[C@@H](Nc1nc(-c2nccs2)nc2c1OCCN2)C3 [Example 13, N-[(3R)-2,3,4,9-tetrahydro-1H-carbazol-3-yl]-2-thiazol-2-yl-7,8-dihydro-6H-pyrimido[5,4-b][1,4]oxazin-4-amine]	> 1780 nM	229 nM
Cc1ncc(-c2nc3c(c(NC4Cc5cccc6[nH]cc(c56)C4)n2)OCCN3)s1 (centres unmarked) [Example 14, 2-(2-methylthiazol-5-yl)-N-(1,3,4,5-tetrahydrobenzo[cd]indol-4-yl)-7,8-dihydro-6H-pyrimido[5,4-b][1,4]oxazin-4-amine]	100 nM	74.1 nM
Cc1ncc(-c2nc3c(c(OCCc4c[nH]c5cc(F)ccc45)n2)OCCN3)s1 [Example 24, 4-[2-(6-fluoro-1H-indol-3-yl)ethoxy]-2-(2-methylthiazol-5-yl)-7,8-dihydro-6H-pyrimido[5,4-b][1,4]oxazine]	2.88 nM	2.63 nM
COC[C@H]1COc2c(NCCc3c[nH]c4ccccc34)nc(-c3cncc(F)c3)nc2N1 [Example 28, (7S)-2-(5-fluoro-3-pyridyl)-N-[2-(1H-indol-3-yl)ethyl]-7-(methoxymethyl)-7,8-dihydro-6H-pyrimido[5,4-b][1,4]oxazin-4-amine]	0.617 nM	0.513 nM

Results, then the compound that gave them:

IC50 [1]	IC50 [2]	SMILES
56.2 nM	25.1 nM	Fc1ccc(-c2nc3c(c(NCCc4c[nH]c5ccccc45)n2)OCCN3)cc1 [Example 2, 2-(4-fluorophenyl)-N-[2-(1H-indol-3-yl)ethyl]-7,8-dihydro-6H-pyrimido[5,4-b][1,4]oxazin-4-amine]
3.98 nM	3.55 nM	Fc1cc(F)cc(-c2nc3c(c(NCCc4c[nH]c5ccccc45)n2)OCCN3)c1 [Example 3, 2-(3,5-difluorophenyl)-N-[2-(1H-indol-3-yl)ethyl]-7,8-dihydro-6H-pyrimido[5,4-b][1,4]oxazin-4-amine]
9.55 nM	9.12 nM	Cc1ncc(-c2nc3c(c(NCCc4c[nH]c5ccccc45)n2)OCCN3)s1 [Example 7, N-[2-(1H-indol-3-yl)ethyl]-2-(2-methylthiazol-5-yl)-7,8-dihydro-6H-pyrimido[5,4-b][1,4]oxazin-4-amine]
8.13 nM	4.57 nM	Cc1ncsc1-c1nc2c(c(NCCc3c[nH]c4ccccc34)n1)OCCN2 [Example 10, N-[2-(1H-indol-3-yl)ethyl]-2-(4-methylthiazol-5-yl)-7,8-dihydro-6H-pyrimido[5,4-b][1,4]oxazin-4-amine]
141 nM	89.1 nM	CCc1nc(C)c(-c2nc3c(c(NCCc4c[nH]c5ccccc45)n2)OCCN3)s1 [Example 12, 2-(2-ethyl-4-methyl-thiazol-5-yl)-N-[2-(1H-indol-3-yl)ethyl]-7,8-dihydro-6H-pyrimido[5,4-b][1,4]oxazin-4-amine]
1.66 nM	3.8 nM	O=c1[nH]cccc1-c1nc2c(c(NCCc3c[nH]c4ccccc34)n1)OCCN2 [Example 17, 3-[4-[2-(1H-indol-3-yl)ethylamino]-7,8-dihydro-6H-pyrimido[5,4-b][1,4]oxazin-2-yl]-1H-pyridin-2-one]
24.5 nM	51.3 nM	Cn1cccc(-c2nc3c(c(NCCc4c[nH]c5ccccc45)n2)OCCN3)c1=O [Example 19, 3-[4-[2-(1H-indol-3-yl)ethylamino]-7,8-dihydro-6H-pyrimido[5,4-b][1,4]oxazin-2-yl]-1-methyl-pyridin-2-one]
43.7 nM	91.2 nM	Cc1ccc(-c2nc3c(c(NCCc4c[nH]c5cc(F)ccc45)n2)OCCN3)cn1 [Example 20, N-[2-(6-fluoro-1H-indol-3-yl)ethyl]-2-(6-methyl-3-pyridyl)-7,8-dihydro-6H-pyrimido[5,4-b][1,4]oxazin-4-amine]
1.45 nM	2.75 nM	O=c1[nH]cccc1-c1nc2c(c(NCCc3c[nH]c4cc(F)ccc34)n1)OCCN2 [Example 21, 3-[4-[2-(6-fluoro-1H-indol-3-yl)ethylamino]-7,8-dihydro-6H-pyrimido[5,4-b][1,4]oxazin-2-yl]-1H-pyridin-2-one]
> 2000 nM	123 nM	FC(F)Oc1ncccc1-c1nc2c(c(NCCc3c[nH]c4ccccc34)n1)OCCN2 [Example 22, 2-[2-(difluoromethoxy)-3-pyridyl]-N-[2-(1H-indol-3-yl)ethyl]-7,8-dihydro-6H-pyrimido[5,4-b][1,4]oxazin-4-amine]
0.724 nM	4.79 nM	COC[C@@H]1COc2c(NCCc3c[nH]c4ccccc34)nc(-c3ccc[nH]c3=O)nc2N1 [Example 26, (R)-3-(4-((2-(1H-indol-3-yl)ethyl)amino)-7-(methoxymethyl)-7,8-dihydro-6H-pyrimido[5,4-b][1,4]oxazin-2-yl)pyridin-2(1H)-one]
2.14 nM	4.9 nM	O=c1[nH]cccc1-c1nc(NCCc2c[nH]c3ccccc23)c2c(n1)N[C@H](CO)CO2 [Example 27, (R)-3-(4-((2-(1H-indol-3-yl)ethyl)amino)-7-(hydroxymethyl)-7,8-dihydro-6H-pyrimido[5,4-b][1,4]oxazin-2-yl)pyridin-2 (1H)-one]
